Key:
purple nutsedge = test: Test D purple nutsedge; format: in vivo, Cyperus rotundus; settings: Postemergence, 0 to 100 scale
common groundsel = test: Test D common groundsel; format: in vivo, Senecio vulgaris; settings: Postemergence, 0 to 100 scale
Spanishneedles = test: Test D Spanishneedles; format: in vivo, Bidens bipinnata; settings: Postemergence, 0 to 100 scale
dallisgrass = test: Test D dallisgrass; format: in vivo, Paspalum dilatatum; settings: Postemergence, 0 to 100 scale
pitted morningglory = test: Test D pitted morningglory; format: in vivo, Ipomoea lacunosa; settings: Postemergence, 0 to 100 scale
tall mallow = test: Test D tall mallow; format: in vivo, Malva sylvestris; settings: Postemergence, 0 to 100 scale
Green foxtail = test: Test D green foxtail; format: in vivo; settings: Postemergence, 0 to 100 scale, 0 no injury, 100 complete control
cotton = test: Test C postemergence cotton; format: in vivo, Gossypium hirsutum; settings: 0 to 100 scale, 0 no effect, 100 complete control
Description: (§1) Compounds evaluated in this test were formulated in a non-phytotoxic solvent mixture which included a surfactant and applied to plants that were grown for various periods of time before treatment (postemergence application). A mixture of sandy loam soil and greenhouse potting mix in a 60:40 ratio was used for the postemergence test.
(§2) Plantings of these crops and weed species were adjusted to produce plants of appropriate size for the postemergence test. All plant species were grown using normal greenhouse practices. Crop and weed species include arrowleaf sida (Sida rhombifolia), barnyardgrass (Echinochloa crus-galli), cocklebur (Xanthium strumarium), common ragweed (Ambrosia elatior), corn (Zea mays), cotton (Gossypium hirsutum), eastern black nightshade (Solanum ptycanthum), fall panicum (Panicum dichotomiflorum), field bindweed (Convolvulus arvensis), giant foxtail (Setaria faberii), hairy beggarticks (Bidens pilosa), ivyleaf morningglory (Ipomoea hederacea), johnsongrass (Sorghum halepense), ladysthumb smartweed (Polygonum persicaria), lambsquarters (Chenopodium album), large crabgrass (Digitaria sanguinalis), purple nutsedge (Cyperus rotundus), redroot pigweed (Amaranthus retroflexus), soybean (Glycine max), surinam grass (Brachiaria decumbens), velvetleaf (Abutilon theophrasti) and wild poinsettia (Euphorbia heterophylla).
(§3) Treated plants and untreated controls were maintained in a greenhouse for approximately 14, to 21 days, after which all treated plants were compared to untreated controls and visually evaluated. Plant response ratings, summarized in Table C, were based upon a 0 to 100 scale where 0 was no effect and 100 was complete control. A dash response (−) means no test result.

giant foxtail = test: Test C postemergence giant foxtail; format: in vivo, Setaria faberii; settings: 0 to 100 scale, 0 no effect, 100 complete control
Description: as §1, §2, §3

ladysthumb smartweed = test: Test C postemergence ladysthumb smartweed; format: in vivo, Polygonum persicaria; settings: 0 to 100 scale, 0 no effect, 100 complete control
Procedure, shortened: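 In this greenhouse assay, treated and untreated plants were kept for approximately 14 to 21 days following postemergence application, then rated by eye on a scale from 0 (no effect) to 100 (complete control).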

[1] = Rate 64 g/ha, 0 no injury, 100 complete control
[2] = Rate 16 g/ha, 0 no injury, 100 complete control
[3] = Rate 32 g/ha, 0 no injury, 100 complete control
[4] = Rate 125 g/ha, 0 no injury, 100 complete control

CC(C)Cn1c(=O)on(C(=O)N(c2ccc(F)cc2)C(C)C)c1=O [Compound 169]
65: Plant response rating, Com. groundsel (common groundsel; [1])
90: Plant response rating, Dallisgrass (dallisgrass; [1])
0: Purple nutsedge plant response rating (purple nutsedge; [1]) | Spanishneedles plant response rating (Spanishneedles; [1]) | Plant response rating, P. morninglory (pitted morningglory; [1]) | Tall Mallow plant response rating (tall mallow; [1])

CC(C)N(C(=O)n1oc(=O)n(C2CC2)c1=O)c1ccc(Cl)cc1 [Compound 241]
40: Plant response rating, Dallisgrass (dallisgrass; [3]) | Plant response rating, Tall Mallow (tall mallow; Rate 250 g/ha)
10: Plant response rating, Spanishneedles (Spanishneedles; Rate 250 g/ha) | Plant response rating, Green foxtail (Green foxtail; Rate 32 g/ha) | Tall Mallow plant response rating (tall mallow; [4])
90: Plant response rating, Dallisgrass (dallisgrass; [4])
50: Plant response rating, Dallisgrass (dallisgrass; [1])
100: Plant response rating, Com. groundsel (common groundsel; [4]) | Plant response rating, Com. groundsel (common groundsel; Rate 250 g/ha) | Plant response rating, Dallisgrass (dallisgrass; Rate 250 g/ha)
0: Plant response rating, Purple nutsedge (purple nutsedge; [2]) | Plant response rating, Purple nutsedge (purple nutsedge; [3]) | Purple nutsedge plant response rating (purple nutsedge; [1]) | Purple nutsedge plant response rating (purple nutsedge; [4]) | Plant response rating, Purple nutsedge (purple nutsedge; Rate 250 g/ha) | Plant response rating, Com. groundsel (common groundsel; [3]) | Plant response rating, Com. groundsel (common groundsel; [1]) | Plant response rating, Spanishneedles (Spanishneedles; [2]) | Plant response rating, Spanishneedles (Spanishneedles; [3]) | Spanishneedles plant response rating (Spanishneedles; [1]) | Spanishneedles plant response rating (Spanishneedles; [4]) | Plant response rating, Dallisgrass (dallisgrass; [2]) | Plant response rating, P. morninglory (pitted morningglory; [2]) | Plant response rating, P. morninglory (pitted morningglory; [3]) | Plant response rating, P. morninglory (pitted morningglory; [1]) | Plant response rating, P. morninglory (pitted morningglory; [4]) | Plant response rating, P. morninglory (pitted morningglory; Rate 250 g/ha) | Plant response rating, Green foxtail (Green foxtail; Rate 16 g/ha) | Plant response rating, Tall Mallow (tall mallow; [2]) | Plant response rating, Tall Mallow (tall mallow; [3]) | Tall Mallow plant response rating (tall mallow; [1])

CC(C)N(C(=O)n1oc(=O)n(Cc2cccs2)c1=O)c1ccc(F)cc1 [Compound 80]
10: Plant response rating Ladysthumb (ladysthumb smartweed; Rate 140 g/ha) | Plant response rating Ladysthumb (ladysthumb smartweed; Rate 280 g/ha)
20: Plant response rating Cotton (cotton; Rate 140 g/ha) | Plant response rating, Giant foxtail (giant foxtail; Rate 1120 g/ha)
0: Plant response rating, Giant foxtail (giant foxtail; Rate 140 g/ha) | Plant response rating, Giant foxtail (giant foxtail; Rate 280 g/ha) | Plant response rating, Giant foxtail (giant foxtail; Rate 560 g/ha)
70: Plant response rating Ladysthumb (ladysthumb smartweed; Rate 560 g/ha) | Plant response rating Ladysthumb (ladysthumb smartweed; Rate 1120 g/ha)
35: Plant response rating Cotton (cotton; Rate 280 g/ha)
40: Plant response rating Cotton (cotton; Rate 560 g/ha) | Plant response rating Cotton (cotton; Rate 1120 g/ha)

Reference: patent publication US6737383B1, “Herbicidal oxadiazolidines” (priority 1999, dated 2004)
